These results are taken from ChEMBL document CHEMBL1201862, “PubChem BioAssay data set” (2004).

Test systems include SF-539; OVCAR-5; U-251; PC-3; 786-0; SK-MEL-2; HCC 2998; M14; SW-620; A498; HOP-92; HCT-116; SR; NCI-H522; SK-MEL-5; OVCAR-4; CCRF-CEM; RPMI-8226; UO-31; HL-60.
Holding throughout (experiment): DTP human tumour cell line panel, 48 h

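Values below derive from 48-hour exposures of cells grown in 96-well plates, with endpoints linearly interpolated between the two concentrations bracketing the appropriate inhibition level. Here, GI50 denotes the concentration required for 50% inhibition of growth.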 The source made the active and inactive calls. Cut-off read from the data, not from the text of the source: active = GI50 up to about 1.1 µM and inactive = higher.

As to `COc1ccc2c(c1)CCN1CCCc3ccc(OC)cc3C21` (configuration not stated), the GI50 in the experiment on SF-539 was 50.4 µM (inactive); in the experiment with OVCAR-5, 89.9 µM (inactive); in the experiment on U-251, 58.9 µM (inactive); in the experiment on PC-3, 28.5 µM (inactive); in the experiment on 786-0, 49.1 µM (inactive); in the experiment on SK-MEL-2, 52.1 µM (inactive). For the same compound, the GI50 is 37.9 µM (inactive) with HCC 2998; 24.2 µM (inactive) in the experiment with M14; 76.7 µM (inactive) with SW-620; 84.5 µM (inactive) in the experiment on A498; 63.8 µM (inactive) in the experiment with HOP-92; 31.3 µM (inactive) with HCT-116. Also, the GI50 with SR is 41.5 µM (inactive); in the experiment with NCI-H522, 32.3 µM (inactive); in the experiment with SK-MEL-5, 39.6 µM (inactive); with OVCAR-4, > 100 µM (inactive); in the experiment with CCRF-CEM it was 42.6 µM (inactive); in the experiment with RPMI-8226 it was 31.6 µM (inactive). Also, the GI50 in the experiment on UO-31 was 22.5 µM (inactive).

Consider `O=S(=O)(c1ccccc1)n1c(C(O)c2ccncc2)cc2ccccc21` (configuration not stated), for which the GI50 in the experiment with SF-539 is > 100 µM (inactive); with OVCAR-5, > 100 µM (inactive); in the experiment on U-251 it was 41 µM (inactive); with PC-3, 35.9 µM (inactive); in the experiment with 786-0, 68.5 µM (inactive); in the experiment on SK-MEL-2 it was 52.6 µM (inactive). The GI50 in the experiment on M14 is 32.7 µM (inactive); with SW-620, 32 µM (inactive); with A498, 38.7 µM (inactive); in the experiment on HOP-92, 27 µM (inactive); in the experiment on HCT-116, 43.1 µM (inactive); in the experiment on SR, 38.5 µM (inactive). The GI50 was 16.8 µM (inactive) with SK-MEL-5; 31.8 µM (inactive) in the experiment with OVCAR-4; 35.6 µM (inactive) in the experiment on CCRF-CEM; 27.1 µM (inactive) with RPMI-8226; 17.3 µM (inactive) in the experiment with UO-31.

As to `COc1cc2c3cc1Oc1c(OC)c(OC)cc4c1C(Cc1ccc(O)c(c1)-c1cc(ccc1OC)CC3N(C)CC2)N(C)CC4` (configuration not stated), the GI50 in the experiment with SF-539 is 7.08 µM (inactive); in the experiment on OVCAR-5 it was 44.8 µM (inactive); in the experiment with U-251 it was 28.1 µM (inactive); in the experiment on PC-3, 20.4 µM (inactive); with 786-0, 29 µM (inactive); with SK-MEL-2, 19.5 µM (inactive). For the same compound, the GI50 in the experiment on HCC 2998 was 17.2 µM (inactive); in the experiment on HL-60, 2.66 µM (inactive); with M14 it was 3.18 µM (inactive); in the experiment on SW-620, 22.3 µM (inactive); in the experiment with A498, 23.2 µM (inactive); with HOP-92, 20.2 µM (inactive). Besides, the GI50 with HCT-116 was 12.3 µM (inactive); in the experiment with SR it was 0.659 µM (active); in the experiment with NCI-H522 it was 11.5 µM (inactive); with SK-MEL-5, 14.8 µM (inactive); with OVCAR-4, 29.4 µM (inactive); in the experiment with UO-31, 13.9 µM (inactive).

Take `O=C1c2ccccc2C(=O)c2c(NC(=O)c3ccc4c5c(ncnc35)-c3ccccc3C4=O)cccc21`: the GI50 in the experiment on SF-539 is 52.4 µM (inactive); with OVCAR-5, > 100 µM (inactive); with U-251 it was 31 µM (inactive); with PC-3 it was > 100 µM (inactive); in the experiment with 786-0 it was 25.1 µM (inactive); with SK-MEL-2 it was 89.3 µM (inactive). In addition, the GI50 in the experiment with HCC 2998 was > 100 µM (inactive); in the experiment on M14 it was > 100 µM (inactive); in the experiment on SW-620 it was > 100 µM (inactive); in the experiment on A498 it was 40.6 µM (inactive); with HOP-92, 53.3 µM (inactive); with HCT-116, > 100 µM (inactive). For the same compound, the GI50 is 91.4 µM (inactive) with SR; > 100 µM (inactive) in the experiment on NCI-H522; > 100 µM (inactive) in the experiment with SK-MEL-5; > 100 µM (inactive) in the experiment with OVCAR-4; > 100 µM (inactive) in the experiment with RPMI-8226; > 100 µM (inactive) in the experiment on UO-31.

Take `CCOC(=O)CCC(NC(=O)OCc1ccccc1)C(=O)NC(CCC(=O)OCC)C(=O)NC(CCC(=O)OCC)C(=O)NNC(=O)OC(C)(C)C` (configuration not stated): the GI50 in the experiment on OVCAR-5, in the experiment with U-251, in the experiment with PC-3, in the experiment with 786-0, in the experiment on SK-MEL-2 and in the experiment on HCC 2998 was > 100 µM (inactive) in each case. Further, the GI50 in the experiment on HL-60, in the experiment on M14, with SW-620, in the experiment with A498, in the experiment with HOP-92 and in the experiment on HCT-116 was > 100 µM (inactive) throughout. Also, the GI50 in the experiment on SR was > 100 µM (inactive); with SK-MEL-5, > 100 µM (inactive); with CCRF-CEM, 49 µM (inactive); with RPMI-8226, > 100 µM (inactive); in the experiment on UO-31, > 100 µM (inactive).

For `CCn1c(=O)c2c3cc(O)ccc3oc2c2ccc(O)cc21`, the GI50 in the experiment with SF-539 is 16.7 µM (inactive); with U-251 it was 22.9 µM (inactive); in the experiment with PC-3, 31.1 µM (inactive); in the experiment on 786-0 it was 57.7 µM (inactive); in the experiment with HCC 2998, 19.3 µM (inactive); in the experiment on M14, 31.2 µM (inactive). Further, the GI50 was 31.3 µM (inactive) in the experiment with SW-620; 18.9 µM (inactive) in the experiment with A498; 26.2 µM (inactive) with HOP-92; 18.2 µM (inactive) with SR; 19.3 µM (inactive) with NCI-H522; 17 µM (inactive) with SK-MEL-5. For the same compound, the GI50 in the experiment on OVCAR-4 was 34.8 µM (inactive); in the experiment with CCRF-CEM, 21.1 µM (inactive); with UO-31, 19.3 µM (inactive).

In the case of `C/C(=N\NC(=S)NC1CCCC1)c1ccccn1`, the GI50 in the experiment on SF-539 was 1.02 µM (active); in the experiment with OVCAR-5, 0.0356 µM (active); in the experiment on U-251, 0.0753 µM (active); in the experiment with PC-3, < 0.01 µM (active); with 786-0, 0.0467 µM (active); in the experiment on SK-MEL-2, 1.35 µM (inactive). Also, the GI50 in the experiment on HCC 2998 is 0.515 µM (active); with HL-60, < 0.01 µM (active); with M14 it was < 0.01 µM (active); in the experiment with SW-620, < 0.01 µM (active); in the experiment on A498, 0.65 µM (active); in the experiment with HOP-92 it was 0.0718 µM (active). For the same compound, the GI50 with HCT-116 is < 0.01 µM (active); in the experiment on SR it was < 0.01 µM (active); in the experiment with SK-MEL-5, 0.205 µM (active); in the experiment with OVCAR-4, 0.135 µM (active); in the experiment with CCRF-CEM, < 0.01 µM (active); with RPMI-8226 it was < 0.01 µM (active). For the same compound, the GI50 in the experiment on UO-31 was < 0.026 µM (active).

For the compound `COC(=O)c1c(O)ccc2c1c1c(n2Cc2ccccc2)C(=O)c2ccccc2C1=O`, the GI50 in the experiment on SF-539 is 15.6 µM (inactive); in the experiment on OVCAR-5, 20.9 µM (inactive); in the experiment with U-251, 13.9 µM (inactive); in the experiment with PC-3, 13.7 µM (inactive); in the experiment on 786-0, 18.2 µM (inactive); in the experiment on SK-MEL-2, 14 µM (inactive). Besides, the GI50 in the experiment on HCC 2998 was 5.01 µM (inactive); with HL-60, 18.3 µM (inactive); in the experiment with M14, 20.4 µM (inactive); in the experiment with SW-620 it was 19.2 µM (inactive); with HOP-92, 13 µM (inactive); in the experiment with HCT-116, 14.2 µM (inactive). Further, the GI50 was 15.6 µM (inactive) in the experiment with SR; 11 µM (inactive) in the experiment with NCI-H522; 16.1 µM (inactive) in the experiment with SK-MEL-5; 12 µM (inactive) in the experiment on OVCAR-4; 15 µM (inactive) in the experiment on CCRF-CEM; 8.55 µM (inactive) with RPMI-8226. Moreover, the GI50 in the experiment with UO-31 was 10.3 µM (inactive).

`O=C1NC(N2CCOCC2)=N/C1=C\c1cccs1`: the GI50 in the experiment on SF-539, in the experiment on OVCAR-5, in the experiment with U-251, in the experiment on PC-3, in the experiment with 786-0 and in the experiment with SK-MEL-2 was > 100 µM (inactive) throughout. The GI50 is 4.65 µM (inactive) with HCC 2998; > 100 µM (inactive) with HL-60; > 100 µM (inactive) in the experiment on M14; > 100 µM (inactive) in the experiment on SW-620; > 100 µM (inactive) with HOP-92; > 100 µM (inactive) in the experiment with HCT-116. In addition, the GI50 in the experiment with SR, in the experiment on NCI-H522, in the experiment on SK-MEL-5, in the experiment with OVCAR-4, with CCRF-CEM and in the experiment on RPMI-8226 was > 100 µM (inactive) in each case. In the experiment with UO-31, the GI50 was > 100 µM (inactive).

Turning to `CCOC(=O)c1nc2cc(F)c(F)cc2nc1NCc1cc(OC)c(OC)c(OC)c1`, the GI50 with SF-539 is > 100 µM (inactive); in the experiment with OVCAR-5, 54.2 µM (inactive); with U-251, 35.9 µM (inactive); in the experiment with PC-3, > 100 µM (inactive); in the experiment on 786-0, 57.1 µM (inactive); in the experiment with SK-MEL-2, > 100 µM (inactive). For the same compound, the GI50 was > 100 µM (inactive) in the experiment on HL-60; > 100 µM (inactive) with M14; > 100 µM (inactive) in the experiment on SW-620; > 100 µM (inactive) in the experiment on A498; 50.7 µM (inactive) with HOP-92; > 100 µM (inactive) in the experiment with HCT-116. For the same compound, the GI50 in the experiment on SR was > 100 µM (inactive); in the experiment with NCI-H522 it was > 100 µM (inactive); in the experiment with SK-MEL-5, 76.7 µM (inactive); in the experiment on OVCAR-4, > 100 µM (inactive); with CCRF-CEM, > 100 µM (inactive); in the experiment on UO-31, 63.7 µM (inactive).

As for `Cc1cc2c(O)nc(N)nc2nc1C`, the GI50 in the experiment with OVCAR-5, with U-251, in the experiment with PC-3, with 786-0, in the experiment with SK-MEL-2 and with HL-60 was > 100 µM (inactive) in each case. The GI50 in the experiment on M14, in the experiment with SW-620, in the experiment with A498, with HOP-92, with HCT-116 and in the experiment on SR was > 100 µM (inactive) each time. The GI50 in the experiment on NCI-H522, in the experiment with SK-MEL-5, with OVCAR-4, with CCRF-CEM, in the experiment on RPMI-8226 and in the experiment with UO-31 was > 100 µM (inactive) in each case.

In general, GI50 refers to the concentration that inhibits growth by half.
